Experimental findings from the METLIN SMRT retention time set (Domingo-Almenara et al. 2019) are described below.

This data set in a line: gradient 5% acetonitrile 3 min, to 50% in 2 min, to 85% in 15 min, held 3 min, 100 µL/min. The conditions noted are these: column: Zorbax Extend-C18 2.1 x 50 mm; eluents: water / acetonitrile, 0.1% formic acid. The method, boiled down:
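In both positive and negative ionization mode, a quadrupole time-of-flight mass spectrometer coupled to HPLC analyzed pure standards run in mixtures of ~100 molecules. The Zorbax Extend-C18 column (2.1 × 50 mm, 1.8 μm) was operated at 100 μL/min with water and acetonitrile, each containing 0.1% formic acid. The dead volume was 40 μL and the dwell volume 900 μL. Retention time came from adduct peaks that were computationally picked and individually inspected by hand.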
The compound `CC(=O)Nc1ccc(-c2noc(C3CCCN(C(=O)CCC4CCCC4)C3)n2)cc1` (stereo not drawn) displayed an RP-LC retention time of 923 s.
For `CCn1nccc1C(=O)N1CCCC1c1ccc(OC)cc1` (stereo not drawn), the RP-LC retention time amounted to 772 s.
On to `Cc1ccc(-c2cc(N3CCOCC3)c3cc(NC(=O)C4CC4)ccc3n2)cc1`, for which the RP-LC retention time was 701 s.
Turning to `CCCN1CCN(c2cc(C(=O)O)c3cc(NC(=O)c4ccc(F)cc4)ccc3n2)CC1`, the RP-LC retention time was found to be 888 s.
`COc1ccc(Br)cc1CNC(=O)c1sc2ncccc2c1-n1cccc1`: the RP-LC retention time was determined as 1130 s.
For the compound `Cc1ccccc1-c1nocc1CCC(=O)O`, the RP-LC retention time amounted to 651 s.
Take `CCN(C(=O)c1ccccc1)c1nc(-c2ccccc2)cs1`: the RP-LC retention time amounted to 1230 s.
Regarding `Cc1ccc2nc(-c3cc(Br)ccc3F)c(Nc3ccc4c(c3)OCO4)n2c1`, the RP-LC retention time stood at 762 s.
In turn, `CN(C)CCn1nnc2cc(-c3noc(-c4cccc(F)c4)n3)ccc21` gave an RP-LC retention time of 676 s.
As for `CCC(C)NC(=O)c1cnn(-c2cc(-c3nc(C(C)(C)C)no3)ccn2)c1C` (stereo not drawn), the figure is 711 s; as for `CCn1cc(CCN2CCN(S(=O)(=O)c3cc(C)cc(C)c3)CC2)c2cccnc21`, 698 s.
For the compound `CCN(CC)c1ccc(NC(=O)C2Cc3cc(S(=O)(=O)N4CCCC4)ccc3N2C(C)=O)c(C)c1` (stereo not drawn), the RP-LC retention time was found to be 676 s.
The compound `CCn1c(=O)sc2cc(S(=O)(=O)N3CCC(C(=O)N4CCC(C)CC4)CC3)ccc21` gave an RP-LC retention time of 900 s.
In turn, `CCCCN1C(=O)CC2CCOC21C` (stereo not drawn) came in with an RP-LC retention time of 753 s.
Take `Cc1nn(-c2ccccc2)c2c1N(CC(=O)NCCC1=CCCCC1)C(=O)CS2`: the RP-LC retention time was found to be 811 s.
With `Cc1nn(CC(=O)N2CCc3ccccc3C2)c(=O)c2nn(-c3ccccc3)c(C)c12`, the RP-LC retention time amounted to 820 s.
The figure for `O=C(CN1C(=O)C(C(=O)N2CCCC2)Sc2ccccc21)N1CCN(Cc2ccccc2)CC1` (stereo not drawn) is 625 s.
As to `Cc1ccc(CNC(=O)CC2CCOC3(CCN(S(C)(=O)=O)CC3)C2)o1` (stereo not drawn), the RP-LC retention time came to 705 s.
The compound `Cc1ccc(NC(=O)Cc2nnc3ccc(-c4nc(C)no4)cn23)c(C)c1` yielded an RP-LC retention time of 781 s.
Compound `COc1ccc(C2C(=O)N(C3CCCCC3)CC(=O)N2Cc2ccc3c(c2)OCO3)cc1` (stereo not drawn) gave an RP-LC retention time of 893 s.
`COC(=O)c1sccc1NC(=O)N1CCCn2nc(-c3cccs3)cc2C1` gave an RP-LC retention time of 984 s.
`Cc1ccc(NC(=O)C2CCN(S(C)(=O)=O)c3cc(Cl)ccc3O2)c(C)c1` (stereo not drawn) had an RP-LC retention time of 992 s.
With `COc1ccc(/C=C/C(=O)c2c(OC)cc(O)cc2OC)cc1`, the RP-LC retention time was determined as 1160 s.
`O=C(Nc1nc(-c2ccc(-c3ccccc3)cc2)cs1)c1cccnc1`: the RP-LC retention time was found to be 1030 s.
The figure for `CC(C)C(=O)NCC12CCCC=C1NC(=O)CC2` (stereo not drawn) is 624 s; for `O=C(Nc1ccccc1Br)N1CCc2nc(-c3ccc(F)cc3)ncc2C1` it is 1020 s; for `COc1nccnc1NC1CCN(C(=O)Cc2ccsc2)CC1` it is 921 s.
As for `O=C(Cc1ccc2c(c1)OCO2)Nc1nc2c(s1)Cc1ccccc1-2`, the figure is 878 s; as for `O=C(CC1CCCCN1S(=O)(=O)c1ccc(Cl)cc1)NCc1cccnc1` (stereo not drawn), 568 s.
The figure for `CCOC(=O)C(C)Sc1nnc2n1CCN2c1ccc(F)cc1` (stereo not drawn) is 718 s.
`O=C(NCc1ccco1)N(c1ccccc1)c1ccccc1` gave an RP-LC retention time of 810 s.
For the compound `CCC(C)NC(=O)C1CCN(c2cncnc2N2CCCC2)CC1` (stereo not drawn), the RP-LC retention time amounted to 608 s.
As for `Cc1ccc(C)c2sc(NCc3ccccn3)nc12`, the RP-LC retention time was found to be 641 s.
For `COc1ccc2[nH]cc(CCNC(=O)C(C)n3c4ccccc4c4cnn(C)c(=O)c43)c2c1` (stereo not drawn), the RP-LC retention time was determined as 813 s.
Compound `CC1(C)CC(=O)c2cn(-c3ccccc3)c(=O)c(C(=O)N3CCC(N4CCCCC4)CC3)c2C1` displayed an RP-LC retention time of 622 s.
`Cc1ccc(S(=O)(=O)N2CCCN(c3ccc(=O)n(-c4ccccc4)n3)CC2)c(C)c1` gave an RP-LC retention time of 916 s.
The figure for `COc1ccc(S(=O)(=O)N2CC3CN(C(=O)c4ccncc4)CC(C2)O3)cc1` is 621 s; for `CCN1C(=O)Cc2ccccc2C1C(=O)NCc1cc(F)ccc1F` (stereo not drawn) it is 753 s.
The figure for `COc1ccc(C(=O)N2CCN(c3c(C)n(C)c(=O)n(C)c3=O)CC2)cc1` is 697 s; for `CCOC(=O)c1cc(S(=O)(=O)N2CCCC2C(=O)Nc2ccc(C(C)C)cc2)cn1C` (stereo not drawn) it is 1070 s; for `C[C@H](CCC(=O)NCCS(=O)(=O)O)[C@H]1CC[C@H]2[C@@H]3[C@H](O)C[C@@H]4C[C@H](O)CC[C@]4(C)[C@H]3C[C@H](O)[C@]12C` it is 665 s.
`CCc1nc(-c2csc(S(=O)(=O)N3CCCC(C(=O)Nc4ccc(F)c(Cl)c4)C3)c2)no1` (stereo not drawn) showed an RP-LC retention time of 1130 s.
Regarding `O=C(NCC1CN(c2ccc3c(c2)OCO3)C(=O)O1)c1cccs1` (stereo not drawn), the RP-LC retention time came out at 678 s.
`CCN1CCCC1CNC(=O)C1CCN(S(=O)(=O)c2ccc3c(c2)sc(=O)n3C)CC1` (stereo not drawn) returned an RP-LC retention time of 794 s.
For the compound `CCN1c2ccc(Cl)cc2C(=O)NC12CCN(C(=O)Nc1cccc(OC)c1)CC2`, the RP-LC retention time came to 852 s.
For `CC(C)n1nc(-c2ccc3oc(N)nc3c2)c2c(N)ncnc21`, the RP-LC retention time came out at 628 s.
The figure for `CCOC(=O)c1cnn(-c2cccc(Cl)c2)c1C1CCNCC1` is 650 s; for `Cc1ccn2cc(-c3ccc(NC(=O)c4cc(Br)ccc4Cl)cc3)nc2n1` it is 700 s; for `CCOC(=O)c1c(C)oc2nc(C)nc(N3CCN(Cc4ccccc4)CC3)c12` it is 583 s.
`NS(=O)(=O)c1cccnc1Nc1ccc(Br)cc1` showed an RP-LC retention time of 913 s.
Turning to `CCN1C(=O)c2cccnc2Sc2cc(NC(=O)c3ccc(Br)o3)ccc21`, the RP-LC retention time is 842 s.
For `O=C(Nc1ccc2c(c1)OCCO2)N1CCCC(c2nnnn2-c2ccccc2)C1` (stereo not drawn), the RP-LC retention time was found to be 792 s.
The compound `O=C(Nc1nccs1)C1CCN(C(=O)C2c3ccccc3Oc3ccccc32)CC1` registered an RP-LC retention time of 799 s.
Compound `O=C([C@@H]1C[C@H](Oc2ccccc2)CN1C(=O)CCC1CCCC1)N1CCCC1` registered an RP-LC retention time of 922 s.
As for `Cc1ccccc1S(=O)(=O)N1CCN(c2nc3ccncc3n(CC(C)C)c2=O)CC1`, the RP-LC retention time worked out at 775 s.
The figure for `O=C(c1c(F)cccc1Cl)N1CCc2nc(-c3ccc(F)cc3)ncc2C1` is 1020 s; for `Cc1ccccc1CNC(=O)c1ccc2c(c1)Sc1ncccc1C(=O)N2C` it is 789 s; for `Cc1ccn2cc(-c3ccc(NS(=O)(=O)c4cc(C)c(C)cc4C)cc3)nc2n1` it is 712 s.
Turning to `CCOc1ccc(S(=O)(=O)NCc2c(-c3ccccc3)nc3sc(C)nn23)cc1`, the RP-LC retention time was determined as 913 s.
The figure for `Cc1ccc(-c2cn3c(CC(=O)N4CCc5ccccc5C4)csc3n2)cc1C` is 879 s; for `CCc1ccc(CNC(=O)CN2CCc3ccccc3C2C(=O)N2CCC(C)CC2)cc1` (stereo not drawn) it is 1050 s.
`CC(C)c1cc(C(=O)N2Cc3ccc(CN4CCN(C)CC4)cc3C2)c(O)cc1O`: the RP-LC retention time worked out at 654 s.
On to `CCc1noc(NC(C)=O)c1-c1ccc(C)c(S(=O)(=O)Nc2cc(C)cc(C)c2)c1`, for which the RP-LC retention time was determined as 885 s.
For the compound `Cc1cnn(Cc2nc(-c3ccc(NC(=O)COc4ccccc4)cc3)oc2C)c1`, the RP-LC retention time amounted to 869 s.
`COc1cccc(-c2ccnc3nc(-c4cccs4)nn23)c1` had an RP-LC retention time of 906 s.
Compound `COc1ccc(-c2nc(Cn3cnc4nc5c(cc4c3=O)CC(C)CC5)c(C)o2)cc1OC` (stereo not drawn) had an RP-LC retention time of 870 s.
Compound `O=C(CN1CCN(Cc2ccccc2)CC1)Nc1nc(-c2ccccc2)cs1` returned an RP-LC retention time of 700 s.
On to `CCC(NC(=O)c1cnc(-c2ccccc2)nc1-c1ccncc1)c1ccc(OC)cc1` (stereo not drawn), for which the RP-LC retention time was 882 s.
The figure for `COc1ccc2cc3c(=O)n(-c4ccc(C(=O)O)cc4)nc-3oc2c1` is 891 s.
As to `Cc1nccn1Cc1noc(-c2ccccc2)n1`, the RP-LC retention time came to 600 s.
`Cc1c(NC(=O)C(C)C)c(=O)n(-c2ccccc2)n1C` showed an RP-LC retention time of 745 s.
As to `O=C(NC1CC1)c1csc(N2CCCCC2)n1`, the RP-LC retention time came out at 853 s.
For the compound `CCCCOc1ccc(CNC(=O)C2CCN(Cc3cn(C)c4ccc(OC)cc34)CC2)cc1`, the RP-LC retention time turned out to be 804 s.
In turn, `CCOc1ccc(NC(=O)c2cc(=O)c3cc(Cl)ccc3o2)c2cccnc12` gave an RP-LC retention time of 665 s.
`O=C(N1CCC(Cc2nc(C3CCOCC3)no2)CC1)C1(c2ccccc2)CC1` came in with an RP-LC retention time of 817 s.
Regarding `Cc1nc(C2CN(S(=O)(=O)c3cccc(C(F)(F)F)c3)CC23CCOCC3)no1` (stereo not drawn), the RP-LC retention time worked out at 856 s.
The figure for `COc1cc([C@@H]2c3cc4c(cc3[C@H](O)[C@@H](CO)[C@@H]2C(=O)Nc2cccc(F)c2)OCO4)cc(OC)c1OC` is 761 s; for `CCOc1ccc(CCNC(=O)c2nc(N3CCCC3)c3ccccc3n2)cc1OCC` it is 732 s.
